Measurements published in PubChem BioAssay AID330 (DTP/NCI, 2004).
Several values for one entry are separate records, joined by “and”; a condition that tells them apart may be missing. Equal values may be shown once. Toxic doses and inconclusive results are not listed. Rule for the calls: active = survival T/C of 150% or more; inactive = T/C below 125% in these data.

Tested on: P388 leukemia ip, CD2F1 mice, survival T/C
Assay: NCI In Vivo Anticancer Drug Screen. Data for tumor model P388 Leukemia (intraperitoneal) in CD2F1 (CDF1) mice
Conditions: endpoint: median survival time, higher = longer survival
In short: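 Mice carrying the transplanted tumor received test compound or vehicle. Survival was recorded in each group, and the value is the treated-group measurement divided by that of the vehicle-treated control group.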

[1] = dose: 60.0 mg/kg/injection, schedule: Q01DX005 (ip), vehicle: Klucel (hydroxypropylcellulose) (HPC)
[2] = dose: 120.0 mg/kg/injection, schedule: Q01DX005 (ip), vehicle: Klucel (hydroxypropylcellulose) (HPC)
[3] = dose: 50.0 mg/kg/injection, schedule: Q01DX005 (ip), vehicle: Klucel (hydroxypropylcellulose) (HPC)
[4] = dose: 100.0 mg/kg/injection, schedule: Q01DX005 (ip), vehicle: Klucel (hydroxypropylcellulose) (HPC)
[5] = dose: 200.0 mg/kg/injection, schedule: Q01DX005 (ip), vehicle: Klucel (hydroxypropylcellulose) (HPC)
[6] = dose: 50.0 mg/kg/injection, schedule: Q01DX009 (ip), vehicle: saline
[7] = dose: 100.0 mg/kg/injection, schedule: Q01DX009 (ip), vehicle: saline
[8] = dose: 60.0 mg/kg/injection, schedule: Q01DX005 (ip), vehicle: saline with Tween-80
[9] = dose: 120.0 mg/kg/injection, schedule: Q01DX005 (ip), vehicle: saline with Tween-80
[10] = dose: 240.0 mg/kg/injection, schedule: Q01DX005 (ip), vehicle: saline with Tween-80
[11] = dose: 12.5 mg/kg/injection, schedule: Q01DX005 (ip), vehicle: saline with Tween-80
[12] = dose: 50.0 mg/kg/injection, schedule: Q01DX005 (ip), vehicle: saline with Tween-80
[13] = dose: 50.0 mg/kg/injection, schedule: Q01DX005 (ip), vehicle: saline
[14] = dose: 100.0 mg/kg/injection, schedule: Q01DX009 (ip), vehicle: saline with Tween-80
[15] = dose: 200.0 mg/kg/injection, schedule: Q01DX009 (ip), vehicle: saline with Tween-80

Measured: T/C

c1ccc([I+]c2ccccc2)cc1
inactive: dose: 0.65 mg/kg/injection, schedule: Q01DX009 (ip), vehicle: saline 95 % of control | dose: 1.25 mg/kg/injection, schedule: Q01DX009 (ip), vehicle: saline sonified 100 % of control | dose: 1.3 mg/kg/injection, schedule: Q01DX009 (ip), vehicle: saline 90 % of control | dose: 1.56 mg/kg/injection, schedule: Q01DX009 (ip), vehicle: saline with Tween-80 103 % of control | dose: 2.5 mg/kg/injection, schedule: Q01DX009 (ip), vehicle: saline sonified 118 % of control | dose: 2.5 mg/kg/injection, schedule: Q01DX009 (ip), vehicle: saline 109 % of control | dose: 2.6 mg/kg/injection, schedule: Q01DX009 (ip), vehicle: saline with Tween-80 106 % of control | dose: 3.13 mg/kg/injection, schedule: Q01DX009 (ip), vehicle: saline sonified 100 % of control | dose: 3.13 mg/kg/injection, schedule: Q01DX009 (ip), vehicle: saline with Tween-80 108 % of control | dose: 3.13 mg/kg/injection, schedule: Q04DX003 (ip), vehicle: saline 100 % of control | dose: 4.0 mg/kg/injection, schedule: Q01DX009 (ip), vehicle: saline with Tween-80 113 % of control | dose: 6.0 mg/kg/injection, schedule: Q01DX009 (ip), vehicle: saline with Tween-80 113 % of control | dose: 6.25 mg/kg/injection, schedule: Q01DX009 (ip), vehicle: saline with Tween-80 122 % of control and 91 % of control | dose: 6.25 mg/kg/injection, schedule: Q04DX003 (ip), vehicle: saline 118 % of control | dose: 12.5 mg/kg/injection, schedule: Q04DX003 (ip), vehicle: saline 118 % of control

CS(=O)(=O)Nc1nc2ccccc2c(=O)o1
inactive: [1] 107 % of control | [2] 102 % of control | dose: 240.0 mg/kg/injection, schedule: Q01DX005 (ip), vehicle: Klucel (hydroxypropylcellulose) (HPC) 99 % of control

COc1ccc2c(C)cc(N/N=C\c3cccc4ccccc34)nc2c1
inactive: [3] 98 % of control | [4] 93 % of control | [5] 106 % of control

CS1(=O)=NC(=N)c2ccccc21 (stereo unspecified)
inactive: [6] 102 % of control | [7] 107 % of control

COc1cc(C2c3cc4c(cc3OC(C)(O)C2C(C)=O)OCO4)cc(OC)c1O (stereo unspecified)
inactive: [8] 95 % of control | [9] 97 % of control | [10] 90 % of control

CC1CN1P(=O)(c1ccccc1)N1CC1C (stereo unspecified)
inactive: [11] 108 % of control | dose: 12.5 mg/kg/injection, schedule: Q01DX005 (ip), vehicle: saline 100 % of control | dose: 25.0 mg/kg/injection, schedule: Q01DX005 (ip), vehicle: saline with Tween-80 100 % of control | dose: 25.0 mg/kg/injection, schedule: Q01DX005 (ip), vehicle: saline 95 % of control | [12] 104 % of control and 97 % of control | [13] 96 % of control | dose: 50.0 mg/kg/injection, schedule: Q01DX005 (ip), vehicle: suspension in saline 105 % of control | dose: 100.0 mg/kg/injection, schedule: Q01DX005 (ip), vehicle: suspension in saline 115 % of control

CCOC(=O)/C=C1/SC(N2CCCCC2)C(=O)N1C (stereo unspecified)
inactive: [6] 100 % of control | [7] 104 % of control | dose: 200.0 mg/kg/injection, schedule: Q01DX009 (ip), vehicle: saline 100 % of control

CN(c1ccccc1)N1C(=O)CC2(CCCC2)C1=O
inactive: dose: 100.0 mg/kg/injection, schedule: Q04DX002 (ip), vehicle: Klucel (hydroxypropylcellulose) (HPC) 103 % of control | dose: 200.0 mg/kg/injection, schedule: Q04DX002 (ip), vehicle: Klucel (hydroxypropylcellulose) (HPC) 106 % of control | dose: 400.0 mg/kg/injection, schedule: Q04DX002 (ip), vehicle: Klucel (hydroxypropylcellulose) (HPC) 94 % of control

N#CC(C#N)=C(O)/C(=C/c1ccc(Cl)cc1Cl)NC(=O)c1ccccc1
inactive: [8] 107 % of control | [9] 98 % of control | [10] 100 % of control

CC(=O)O.[Pb]
inactive: dose: 25.0 mg/kg/injection, schedule: Q04DX003 (ip), vehicle: saline with Tween-80 100 % of control | dose: 50.0 mg/kg/injection, schedule: Q04DX003 (ip), vehicle: saline with Tween-80 100 % of control | dose: 100.0 mg/kg/injection, schedule: Q04DX003 (ip), vehicle: saline 91 % of control

CCOc1ccc(Br)cc1/C=N/NS(=O)(=O)c1ccc(C)cc1
inactive: [14] 123 % of control

CCOP(=S)(N/N=C/c1ccc(Cl)s1)OCC
inactive: [3] 115 % of control | [4] 110 % of control | [5] 114 % of control

O=C(O)CCOCCCOCCC(=O)O
inactive: [13] 95 % of control | dose: 100.0 mg/kg/injection, schedule: Q01DX005 (ip), vehicle: saline 98 % of control | dose: 200.0 mg/kg/injection, schedule: Q01DX005 (ip), vehicle: saline 100 % of control

O=C1NC(=O)C2(Br)Nc3ccc(Br)cc3C(=O)C2N1 (stereo unspecified)
inactive: [3] 100 % of control | [4] 98 % of control | [5] 90 % of control

C[C@]12CC[C@H]3C(=CCc4cc(O)ccc43)[C@@H]1C/C(=N\O)C2=O
inactive: [14] 115 % of control | dose: 100.0 mg/kg/injection, schedule: Q04DX003 (ip), vehicle: saline with Tween-80 100 % of control | [15] 120 % of control | dose: 200.0 mg/kg/injection, schedule: Q04DX003 (ip), vehicle: saline with Tween-80 104 % of control | dose: 400.0 mg/kg/injection, schedule: Q04DX003 (ip), vehicle: saline with Tween-80 95 % of control

CCCCCCCCCCCCCCOCCS(=O)(=O)O
inactive: [8] 86 % of control | [10] 100 % of control

COc1ccc2c(c1)OCCN(C)C2c1ccccc1 (stereo unspecified)
inactive: [12] 97 % of control | dose: 100.0 mg/kg/injection, schedule: Q01DX005 (ip), vehicle: saline with Tween-80 99 % of control | dose: 200.0 mg/kg/injection, schedule: Q01DX005 (ip), vehicle: saline with Tween-80 99 % of control

Cc1cc2c(cc1C)-c1c(oc3cc(C)c(C)cc13)-c1ccccc1C(=O)O2
inactive: dose: 50.0 mg/kg/injection, schedule: Q01DX009 (ip), vehicle: saline with Tween-80 94 % of control | [14] 97 % of control | [15] 97 % of control

O=C1C2=C(Nc3ccccc3N2)OC1c1ccccc1Cl (stereo unspecified)
inactive: [1] 97 % of control | [2] 97 % of control

Cn1cccc1/C=N/N1CC(=O)N(c2cccc(C(F)(F)F)c2)CC1=O
inactive: dose: 6.25 mg/kg/injection, schedule: Q01DX005 (ip), vehicle: saline with Tween-80 98 % of control | [11] 100 % of control

N=CC1=C(O)CCOC1=O
inactive: dose: 100.0 mg/kg/injection, schedule: Q01DX001 (ip), vehicle: saline 99 % of control | dose: 200.0 mg/kg/injection, schedule: Q01DX001 (ip), vehicle: saline 99 % of control | dose: 400.0 mg/kg/injection, schedule: Q01DX001 (ip), vehicle: saline 100 % of control

CNC(=O)N(C)c1cc(N(C)C)nc(OC)n1
inactive: dose: 4.5 mg/kg/injection, schedule: Q01DX005 (ip), vehicle: saline + alcohol 100 % of control | dose: 9.0 mg/kg/injection, schedule: Q01DX005 (ip), vehicle: saline + alcohol 90 % of control | dose: 18.0 mg/kg/injection, schedule: Q01DX005 (ip), vehicle: saline + alcohol 98 % of control | dose: 36.0 mg/kg/injection, schedule: Q01DX005 (ip), vehicle: saline + alcohol 98 % of control | dose: 72.0 mg/kg/injection, schedule: Q01DX005 (ip), vehicle: saline + alcohol 101 % of control
